Results as given in EP2915814A2, “Crystalline salts of sitagliptin” (priority 2008, dated 2010).
Where a name gives a salt, the structure may show the parent alone. Read-outs that look alike come from different tables or passages of the source. Marks after values point to notes of the source that are not given here. Values belong to the compound of their own block, whether it stands above or below them.

Tests used:
[1] = Hygroscopicity studies (water content after storage at 43 %, 75 % and 93 % relative humidity); assay type: physicochemical; details: for Hygroscopicity 2 weeks 43 % rh: 2 weeks at 43 % rh; for Hygroscopicity 2 weeks 43 % rh / Hygroscopicity 2 weeks 75 % rh / Hygroscopicity 2 weeks 93 % rh: % Equilibrium moisture content, ss = semi solid state of sample, β = solid first changed into liquid and solidified again; for Hygroscopicity 2 weeks 75 % rh: 2 weeks at 75 % rh; for Hygroscopicity 2 weeks 93 % rh: 2 weeks at 93 % rh; for Initial water content: initial sample; for change during the hygroscopicity studies: 43 %, 75 % and 93 % relative humidity, confirmed by DSC of samples kept at 93 % relative humidity for 2 weeks
Text: The salts of the present invention and the free base were studied under three different humidity conditions (43 % relative humidity, 75 % relative humidity, and 93 % relative humidity).

[2] = Dissolution of salts (done on 1 capsule each); assay type: physicochemical; details: for Dissolution in capsule in acetate buffer pH 4.5 medium at 50 rpm at 10 min (% release as free base) / Dissolution in capsule in acetate buffer pH 4.5 medium at 50 rpm at 30 min (% release as free base): acetate buffer pH 4.5, 50 rpm; for Dissolution in capsule in phosphate buffer pH 7.4 medium at 50 rpm at 10 min (% release as free base) / Dissolution in capsule in phosphate buffer pH 7.4 medium at 50 rpm at 30 min (% release as free base): phosphate buffer pH 7.4, 50 rpm
Text: Table 28: Dissolution results of salts (Done on 1 capsule each)

[3] = Evaluation of sitagliptin salts for processability; details: for Appearance: powder
Text: Table 29: Evaluation of different Sitagliptin salts for processability

[4] = Stability studies (storage at 60 °C in closed bottles or at 40 °C / 75 % RH in an open bottle; related substances by HPLC); details: for Initial Related Substances: before storage
pH of aqueous solution = assay type: physicochemical; details: 2 % aqueous solution
[5] = solid; for Related Substances 4 w 40°C/75 % RH closed / Related Substances 4 w 40°C/75 % RH open / Related Substances 4 w 60°C Closed bottle: 672 h; for Related Substances 12 weeks 40°C/75 % RH closed bottle / Related Substances 12 weeks 40°C/75 % RH open bottle: 2016 h; for Related Substances 2 W 40°C/75 % RH open / Related Substances 2 W 60°C closed: 336 h; for Related Substances 2 W 60°C closed / Related Substances 4 w 60°C Closed bottle: closed bottle
[6] = Solubility in water / aqueous solution; assay type: physicochemical; details: compared to other known salts of sitagliptin

Dissolution in capsule in pH 6.8 buffer at 50 rpm at 10 min (% release as free base) [2]: 62.4% | Dissolution in capsule in pH 6.8 buffer at 50 rpm at 30 min (% Release as free base) [2]: 89.47% | Dissolution in capsule in water medium at 50 rpm at 10 min (% release as free base) [2]: 75.89% | Dissolution in capsule in water medium at 50 rpm at 30 min (% release as free base) [2]: 94.23%
Compound: Amorphous Sitagliptin Citrate [citrate (amorphous)]
solid form conversion on humidity storage ([1]; two weeks storage at 93% relative humidity): partial conversion into the respective crystalline form

Flowability [3]: Good | Poured density, m/V0 [3]: 0.52 g/ml | Sticking tendency [3]: None | Tapped density, m/V1250 [3]: 0.57 g/mL | Apparent Volume V0 [3]: 190 mL | Apparent Volume V10 [3]: 185 mL | Apparent Volume V500 [3]: 175 mL | Apparent Volume V1250 [3]: 174 mL | Hygroscopicity 2 weeks 43 % rh [1]: 3.69% | Hygroscopicity 2 weeks 75 % rh [1]: 3.67% | Hygroscopicity 2 weeks 93 % rh [1]: 3.73% | Initial water content ([1]; before storage): 3.59%
Compound: N[C@@H](CC(=O)N1CCn2c(nnc2C(F)(F)F)C1)Cc1cc(F)c(F)cc1F [M: Phosphate]
Appearance [3]: White to off-white powder, fine powder, few agglomerates.

Dissolution in capsule in acetate buffer pH 4.5 medium at 50 rpm at 10 min (% release as free base) [2]: 48.08% | Dissolution in capsule in acetate buffer pH 4.5 medium at 50 rpm at 30 min (% release as free base) [2]: 98.48% | Dissolution in capsule in pH 6.8 buffer at 50 rpm at 10 min (% release as free base) [2]: 86.65% | Dissolution in capsule in pH 6.8 buffer at 50 rpm at 30 min (% Release as free base) [2]: 91.12% | Dissolution in capsule in phosphate buffer pH 7.4 medium at 50 rpm at 10 min (% release as free base) [2]: 80.81% | Dissolution in capsule in phosphate buffer pH 7.4 medium at 50 rpm at 30 min (% release as free base) [2]: 99.18% | Dissolution in capsule in water medium at 50 rpm at 10 min (% release as free base) [2]: 46.63% | Dissolution in capsule in water medium at 50 rpm at 30 min (% release as free base) [2]: 96.30%
Compound: N[C@@H](CC(=O)N1CCn2c(nnc2C(F)(F)F)C1)Cc1cc(F)c(F)cc1F [Phosphate H2O Ref]

stability (degradation, related substances by HPLC) ([4]; closed bottle, four weeks at 60 °C): excellent stability | pH (pH of aqueous solution): 5.8 ± 0.1 | hygroscopicity ([1]; prolonged storage at 93 % relative humidity): not hygroscopic
Compound: N[C@@H](CC(=O)N1CCn2c(nnc2C(F)(F)F)C1)Cc1cc(F)c(F)cc1F [sitagliptin hydrochloride, Sitagliptin Hydrochloride Form II]

Initial Related Substances [4]: 0.14% | Hygroscopicity (water content) ([1]; 2 weeks 43 % rh): 1.36% | Hygroscopicity (water content) ([1]; 2 weeks 75 % rh): 1.78% | Hygroscopicity (water content) ([1]; 2 weeks 93 % rh): 19.58** % | Initial water content ([1]; before humidity storage): 0.90% | Related Substances 4 w 40°C/75 % RH closed [5]: 0.29% | Related Substances 12 weeks 40°C/75 % RH closed bottle [5]: 0.23% | Related Substances 2 W 40°C/75 % RH open [5]: 0.13% | Related Substances 4 w 40°C/75 % RH open [5]: 0.25% | Related Substances 12 weeks 40°C/75 % RH open bottle [5]: 0.16% | Related Substances 2 W 60°C closed [5]: 0.30% | Related Substances 4 w 60°C Closed bottle [5]: 0.58%
Compound: Sitagliptin succinate Form I [F: Succinate I]

Flowability [3]: Good | Poured density, m/V0 [3]: 0.483 g/ml | Sticking tendency [3]: Very low | Tapped density, m/V1250 [3]: 0.508 g/mL | Apparent Volume V0 [3]: 40 mL | Apparent Volume V10 [3]: 40 mL | Apparent Volume V500 [3]: 38 mL | Apparent Volume V1250 [3]: 38 mL | Related Substances 2 W 40°C/75 % RH open ([4]; 2 weeks, 40°C/75 % RH, open, 20160 min): 0.23% | Related Substances 2 W 60°C closed ([4]; 2 weeks, 60°C, closed, 20160 min): 0.20% | Related Substances 4 w 40°C/75 % RH closed ([4]; 4 weeks, 40°C/75 % RH, closed, 40320 min): 0.24% | Related Substances 4 w 40°C/75 % RH open ([4]; 4 weeks, 40°C/75 % RH, open, 40320 min): 0.36% | Related Substances 4 w 60°C Closed bottle ([4]; 4 weeks, 60°C, closed bottle, 40320 min): 0.31% | Related Substances 12 weeks 40°C/75 % RH closed bottle ([4]; 12 weeks, 40°C/75 % RH, closed bottle, 120960 min): 0.25% | Related Substances 12 weeks 40°C/75 % RH open bottle ([4]; 12 weeks, 40°C/75 % RH, open bottle, 120960 min): 0.46% | Initial Related Substances [4]: 0.20% | Hygroscopicity 2 weeks 43 % rh [1]: 2.59% | Hygroscopicity 2 weeks 75 % rh [1]: 7.1% | Hygroscopicity 2 weeks 93 % rh [1]: 7.33% | Initial water content ([1]; before storage): 1.88%
Compound: N[C@@H](CC(=O)N1CCn2c(nnc2C(F)(F)F)C1)Cc1cc(F)c(F)cc1F [O: Sulfate II]
Appearance [3]: White to off-white powder with big, coarse and hard particles.

change during the hygroscopicity studies [1]: did not show much change | Dissolution in capsule in pH 6.8 buffer at 50 rpm at 10 min (% release as free base) [2]: 84.72% | Dissolution in capsule in pH 6.8 buffer at 50 rpm at 30 min (% Release as free base) [2]: 90.94% | Dissolution in capsule in water medium at 50 rpm at 10 min (% release as free base) [2]: 90.22% | Dissolution in capsule in water medium at 50 rpm at 30 min (% release as free base) [2]: 98.89%
Compound: Sitagliptin Malate

Dissolution in capsule in acetate buffer pH 4.5 medium at 50 rpm at 10 min (% release as free base) [2]: 93.89% | Dissolution in capsule in acetate buffer pH 4.5 medium at 50 rpm at 30 min (% release as free base) [2]: 100% | Dissolution in capsule in pH 6.8 buffer at 50 rpm at 10 min (% release as free base) [2]: 90.13% | Dissolution in capsule in pH 6.8 buffer at 50 rpm at 30 min (% Release as free base) [2]: 91.21% | Dissolution in capsule in phosphate buffer pH 7.4 medium at 50 rpm at 10 min (% release as free base) [2]: 93.63% | Dissolution in capsule in phosphate buffer pH 7.4 medium at 50 rpm at 30 min (% release as free base) [2]: 99.67%
Compound: N[C@@H](CC(=O)N1CCn2c(nnc2C(F)(F)F)C1)Cc1cc(F)c(F)cc1F [HCl II]

stability (degradation, related substances by HPLC) ([4]; closed bottle, four weeks at 60 °C, listed as sitagliptin hemisulphate): excellent stability | stability (degradation, related substances by HPLC) ([4]; closed bottle, two weeks at 60 °C): stable | solubility in water [6]: very high solubility in water
Compound: N[C@@H](CC(=O)N1CCn2c(nnc2C(F)(F)F)C1)Cc1cc(F)c(F)cc1F [sulfate (non solvated), Sitagliptin Sulfate Form II]
change during the hygroscopicity studies ([1]; listed as sitagliptin sulfate (non solvated)): increase in water content corresponding to conversion of hemihydrate to dihydrate

Initial Related Substances [4]: 0% | Hygroscopicity (water content) ([1]; 2 weeks 43 % rh): 1.058% | Hygroscopicity (water content) ([1]; 2 weeks 75 % rh): 1.078% | Hygroscopicity (water content) ([1]; 2 weeks 93 % rh): 1.168% | change during the hygroscopicity studies [1]: did not show much change | Initial water content ([1]; before humidity storage): 0.89% | Related Substances 4 w 40°C/75 % RH closed [5]: 0.07% | Related Substances 12 weeks 40°C/75 % RH closed bottle [5]: 0.13% | Related Substances 2 W 40°C/75 % RH open [5]: 0.01% | Related Substances 4 w 40°C/75 % RH open [5]: 0.06% | Related Substances 12 weeks 40°C/75 % RH open bottle [5]: 0.11% | Related Substances 2 W 60°C closed [5]: 0.01% | Related Substances 4 w 60°C Closed bottle [5]: 0.03%
Compound: Sitagliptin Fumarate Form I [D:Fumarate I]
